Laboratory results: article PMC10451034, “Highly Efficient Photosensitizers with Molecular Vibrational Torsion for Cancer Photodynamic Therapy” (ACS Central Science, 2023)

Legend:
HepG2 cells = test: MTT cytotoxicity assay, HepG2; type: cell-based, human; settings: Homo sapiens, HepG2, light or radiation study, HepG2, 660 nm irradiation 12 J/cm^2
Source text: To further quantitatively explore the in vitro anticancer potency of QTCy7-R, the methyl thiazolyltetrazolium (MTT) assay was employed to detect cell viability. […] Next, we evaluated the cytotoxicity under dark conditions of this series of compounds at high concentrations (Figure 9e), as due to the characteristics of mitochondrial accumulation, QTCy7-Me and QTCy7-Ph might lead to mitochondrial depolarization and apoptosis at high concentrations. However, its IC50 value could still reach about 60 μM, which was almost […] than those of all cyanine photosensitizers reported. […] The photocytotoxicity index value (dark IC50/light IC50) of QTCy7-Ac was >500, manifesting that QTCy7-Ac is a PS with high efficacy but low cytotoxicity, which is extremely promising in clinical application. […]
Cytotoxicity was tested by the reduction of methyl thiazolyl tetrazolium to formazan by succinic acid dehydrogenase in the mitochondria of living cells (MTT assay). HepG2 cells, MCF7 cells and 4T1 cells were seeded to 96-well microplates (Nunc, Denmark) with a density of 1 × 10^5 cells/mL cells in 100 μL DMEM medium and incubated at 37 °C for 24 h. When the cell density reached about 70%, the QTCy7-R with different concentrations (4, 3, 2, 1.5, 1, 0.75, 0.5, 0.25, 0 μM) in PBS were added to the wells of cells in dark condition, respectively. For light groups, the cell incubation conditions were the same as those of the dark group and the cells were further incubated for 2 h, subsequently, the cells were subjected to 660 nm irradiation (20 mW/cm2) for different time (10 min, 5 min and 2.5 min) corresponding to different light doses (12 J/cm2, 6 J/cm2 and 3 J/cm2). Then all the cells were incubated for 12 h, after which the MTT solution in DMEM (0.5 mg/ml, 100 μL) was added to each well and the cells were incubated at 37 °C for another 4 h. The MTT solution was carefully removed and 100 μL DMSO was added to dissolve formazan, and the absorbance of each well was measured by a multifunctional microplate reader at 570 nm and 630 nm. The cell viability was obtained by the following equation: […]
Where “OD” represent the absorbance at 570 nm and 630 nm, “ps” and “control” represent experimental groups and control groups, respectively. […]

[1] = Singlet oxygen quantum yield by DPBF decay curve method; type: physicochemical; settings: in dichloromethane
Experimental: Afterward, the singlet oxygen yields of the series of molecules were preliminarily measured and analyzed by the 1,3-diphenylisobenzofuran (DPBF) decay curve method (Figures 2d,e and S2). […] Meanwhile, in order to exclude the effect of the rigid structure, ΦΔ of a Cy7-like reference molecule (TCy7C) with a rigidified structure but absence of an oxygen atom was measured. The singlet oxygen yield of TCy7C was 2.2%, even lower than that of TCy7 under the same conditions (Figure S3). […]
Photoexcited singlet oxygen production was detected by employed 1,3-diphenylisobenzofuran (DPBF) as the indicator. The absorbance of DPBF at 415 nm was regulated to about 1.0 in DCM. And the samples were irradiated with 660 nm light for various times, then the absorption spectra of different time nodes were recorded.
The singlet oxygen quantum yield (ΦΔ) was calculated by the following equation:
Where “Φ” represent the singlet oxygen quantum yield , “sam” and “std” represent QTCy7-R and MB, respectively. “m” is the slope of the absorbance of DPBF at 415 nm with time, F=1–10-O.D. (O.D. is the absorbance of samples at 660 nm). […]

[2] = UV-vis absorption, fluorescence emission, absolute fluorescence quantum yield and fluorescence lifetime; type: physicochemical
Experimental: First, the UV–vis absorption and fluorescence emission spectra of the series of compounds were measured and analyzed. […] Concurrently, the Stokes shifts of all four compounds were more than 60 nm (Figure 2a,b and Table 1), which could effectively improve the signal-to-noise ratio (SNR) of fluorescence compared to the ordinary TCy7. The fluorescence lifetimes of all four compounds were within 2 ns, indicating no delayed fluorescence generation (Figure 2c and Table 1). […]
Materials and Instrumentation
All the general chemicals used in this paper are purchased from Energy Chemical Co. and Innochem Chemical Co. unless otherwise specified. All solvents were […]
analytically pure. […]
All the other solvents and reagents used in this study were of analytical grade. All the BALB/c mice were purchased from Liaoning […]
III 500 spectrometers. Absorption and emission spectra for all the compounds were achieved on the Agilent Technologies CARY 60 UV -Vis spectrophotometer and VAEIAN CARY Eclipse fluorescence spectrop hotometer (Serial No. FL0812 -M018), […]
respectively. Unless otherwise specified, all spectroscopic tests were performed in a quartz cell (10×10 mm). Fluorescence quantum yield of all the compounds were measured on the HAMAMATSU absolute fluorescence quantum yield spectrometer (Serial No. C11347). Triplet lifetime of compounds were acquired on LP980 laser flash photolysis spectrometer (Edinburgh Instruments, U.K.). The cell confocal laser scanning microscope (CLSM) images were all obtained by using Olympus FV3000 confocal laser scanning microscope. […]
Figure 4, Figure S6 and Figure S7). The spin-orbital coupling (SOC) values between the S1/S1V and T2 were calculated with ORCA 4.13. Hole-Electron analysis was carried […]
ISC rate constants calculation […]
Triplet lifetime measurements
The triplet life of QTCy7-R was measured by LP980 laser flash photolysis spectrometer (Edinburgh Instruments Ltd.) in combination with a Nd:YAG laser (Surelite I-10, Continuum Electro-Optics, Inc.). The oxygen in the sample was removed by aerating nitrogen for 30 min. The samples (5 μM) were excited by a 610 nm laser pulse (1 Hz, 100 mJ per pulse, fwhm ≈ 7 ns) at 300 K. The triplet state decay kinetics were measured at the maximum absorption wavelengths of each compound.
Fluorescence lifetime and femtosecond time-resolved transient absorption spectra […]
The fluorescence lifetimes and femtosecond time-resolved transient absorption spectra of dyes were recorded on a freshly prepared samples using the time-correlated single photon counting (TCSPC) method (PicoQuant PicoHarp 300) at 300 K. The concentration is 10 μM, solvent is DCM.
Hepatoma carcinoma cells (HepG-2 cells), human mammary carcinoma (MCF-7) and mouse breast cancer cells (4T1) were maintained in Dulbecco’s modified Eagle’s

ΦΔ, singlet oxygen yield ([1]; DPBF method) [%]	ΦΔ, singlet oxygen quantum yield ([1]; methylene blue as standard, 660 nm irradiation)	ΦF, absolute fluorescence quantum yield [2] [%]	Δλ, Stokes shift ([2]; in dichloromethane) [nm]	λabs, maximum absorption wavelength ([2]; in dichloromethane) [nm]	λem, maximum emission wavelength ([2]; in dichloromethane) [nm]	τS, fluorescence lifetime ([2]; in dichloromethane) [ns]	SMILES	IC50 (HepG2 cells) [µM]
							C=Cc1c(C)c2cc3nc(c(CC(=O)O)c4[nH]c(cc5nc(cc1[nH]2)C(C)=C5CC)c(C)c4C(=O)O)[C@@H](CCC(=O)O)[C@@H]3C [Ce6, chlorin e6, reference compound]	3.5
2.6	0.026	19.3	23	770	793	1.54	CCN1/C(=C/C=C/C=C/C=C/c2sc3ccccc3[n+]2CC)Sc2ccccc21 [TCy7, reference compound]	
